Data as given in ChEMBL document CHEMBL1150999, “Synthesis and biological activities of new conformationally fixed analogues of ()-indolactam-V, the core structure of tumor-promoting teleocidins” (1995).

Tests used:
Format in all cases: functional
Human gammaherpesvirus 4 [1] = assay: In vitro ability of compound to induce Epstein-Barr virus early antigen (EBV-EA) activity at 10 e-5 M concentration
Human gammaherpesvirus 4 [2] = assay: In vitro ability of compound to induce Epstein-Barr virus early antigen (EBV-EA) activity at 10 e-7 M concentration
Human gammaherpesvirus 4 [3] = assay: In vitro ability of compound to induce Epstein-Barr virus early antigen (EBV-EA) activity at 10 e-6 M concentration

Compound	Activity (Human gammaherpesvirus 4 [1])	Activity (Human gammaherpesvirus 4 [2])	Activity (Human gammaherpesvirus 4 [3])
CC(C)[C@H]1C(=O)N[C@H](CO)Cc2c[nH]c3cccc(c23)N1C [INDOLACTUM]	35%	7.7%	19%
Cc1ccc2[nH]cc3c2c1N(C)[C@@H](C(C)C)C(=O)N[C@H](CO)C3	9.4%	0.3%	1.4%
CC(C)[C@H]1C(=O)N[C@H](CO)Cc2c[nH]c3ccc4c(c23)N1[C@H](C)C4	16%	1.2%	14.1%
Cc1cc2ccc3[nH]cc4c3c2n1[C@@H](C(C)C)C(=O)N[C@H](CO)C4	36.1%	12.7%	34%
CC(C)[C@H]1C(=O)N[C@H](CO)Cc2c[nH]c3ccc4c(c23)N1[C@@H](C)C4	17.8%	0.2%	0.8%
